Test results: US20240261348A1, “LACTOBACILLUS PLANTARUM-DERIVED VESICLE AND USE THEREOF” (priority 2021, published 2024)

System: AMPK (pAMPK) in muscle cells (L6 myotube cells)
Experiment: AMPK activation in muscle cells (pAMPK western blotting)
Assay type: cell-based
Protocol: Therefore, an experiment was conducted to evaluate whether Lactobacillus plantarum-derived vesicles (Lp EV) affect cellular aging through AMPK activation in cells. To evaluate AMPK activation according to a concentration of treated Lactobacillus plantarum-derived vesicles in vitro, muscle cells (L6 myotube cells) were treated with the Lactobacillus plantarum-derived vesicles at 0, 0.1, 1, or 10 μg/mL for 1 hour. As a control, insulin (1 μM), which promotes aging and metformin (50 mM), which inhibits aging were used. After treating the cells with the drug, the difference in the amount of pAMPK, which is a key indicator in AMPK signaling, was measured through western blotting. […] To perform BCA quantitative analysis, the 1.5 mL microtube containing 5 μL of the lysed sample supernatant was taken out at room temperature, 20 μL of sterile distilled water was added thereto, and the resulting solution was vortexed and then spun down. […] After reacting in a 37° C. incubator for 30 minutes, absorbance was measured at 562 nm using a SpectraMax M3 microplate reader (Molecular Devices, USA). For western blotting, in the process of tris-glycine SDS-polyacrylamide gel electrophoresis, a 10% gel was prepared, and 50 μg of a protein for each sample was quantified and loaded. […]

Row | Compound | phosphorylation of AMPK (pAMPK) (insulin 1 μM for 1 hour (FIG. 8)) | phosphorylation of AMPK (pAMPK) (metformin 50 mM for 1 hour (FIG. 8))
1 | insulin | inhibited | –
2 | CN(C)C(=N)N=C(N)N [metformin] | – | increased
